Patent US10398651B2, “Carrier-free nanoparticles” (priority 2016, dated 2019)

Assays:
[1] = tested on: HT-29 colon cancer cells; details: cited from earlier work
[2] = tested on: HeLa cervical cancer cells; details: cited from earlier work
[3] = tested on: K562 chronic myelogenous leukemia cells; details: cited from earlier work
[4] = tested on: SKOV-3 human ovarian cancer cells; experiment: IC50 determination, MTT assay, SKOV-3 cells; type: cell-based; details: SK-OV-3, SKOV3, 24 h treatment + 48 h post-treatment incubation
Description: (§1) Cytotoxicity of Cim-F-alb was tested with B16F10 cells and SKOV-3 human ovarian cancer cells (ATCC, Manassas, Va., USA) over a range of PTX concentrations. SKOV-3 cells were grown in RPMI-1640 medium containing 10% FBS and penicillin (100 IU/mL) and streptomycin (100 μg/mL). Both cells were treated with Cim-F-alb for 24 h, followed by post-treatment incubation in NC-free medium for 12-48 h. Free PTX and Abraxane were tested in the same manner for comparison. Cim-F-alb and Abraxane were directly reconstituted in PBS and serially diluted by a factor of 10. Free PTX solution was prepared as PTX stock solution in 50% DMSO at a concentration of 1 mg/mL and diluted in PBS. The maximum possible concentration of DMSO in the medium was 5% v/v. SKOV-3 cells and B16F10 cells grown in RPMI-1640 were tested with the MTT assay, and B16F10 cells grown in DMEM were tested with PI staining and flow cytometry. IC50 was calculated with GraphPad Prism 6 (La Jolla, Calif., USA).

[5] = tested on: B16F10 cells; experiment: IC50 determination, PI staining and flow cytometry, B16F10 cells; type: cell-based; details: Mus musculus, B16-F10, 24 h treatment, PI staining + flow cytometry
Description: B16F10 cells grown in DMEM medium was tested with propidium iodide (PI) staining due to the production of melanin [32], which interferes with colorimetric assay. B16F10 cells were seeded in a 6 well plate at a density of 100,000 cells per well. After overnight incubation, the medium was replaced with fresh medium, to which 100 μL of PNC-alb, Cim-C-alb, or Cim-F-alb in PBS was added to provide the final concentration eq. to 30 μg/mL PTX. After incubation with NC for 3 h, cells were washed with PBS two times to remove NC, followed by additional incubation for 21 h in NC-free medium. Then, B16F10 cells were trypsinized and stained with PI (1 μg/mL) for 15 min in dark at room temperature. The cells were centrifuged at 300 g for 5 minutes to remove extra PI dye and reconstituted in PBS for flow cytometry (Accuri C6, BD Biosciences, San Jose, Calif.). At least 15,000 gated events were acquired, and FL-2 channel was monitored to determine the population of PI-stained cells.
Cytotoxicity of Cim-F-alb was tested with B16F10 cells and SKOV-3 human ovarian cancer cells (ATCC, Manassas, Va., USA) over a range of PTX concentrations. SKOV-3 cells were grown in RPMI-1640 medium containing 10% FBS and penicillin (100 IU/mL) and streptomycin (100 μg/mL). […] IC50 was calculated with GraphPad Prism 6 (La Jolla, Calif., USA).

[6] = tested on: B16F10 cells; experiment: IC50 determination, MTT assay, B16F10 cells; type: cell-based; details: Mus musculus
Description: Cytotoxicity of NC was tested with B16F10 cells. B16F10 cells were grown in RPMI-1640 or DMEM medium supplemented with 10% FBS, penicillin (100 IU/mL) and streptomycin (100 μg/mL). B16F10 cells grown in RPMI-1640 were seeded in a 96 well plate at a density of 10,000 cells per well. After overnight incubation, the culture medium was replaced with a fresh cell culture medium, to which PNC-alb, Cim-C-alb, or Cim-F-alb were added to provide the final concentration eq. to 30 μg/mL PTX. After 3 h incubation, cells were washed with PBS twice to remove NC, followed by additional incubation for 21 h in NC-free medium. The cell viability was determined by the MTT (3-(4,5-dimethylthiazol-2-yl)-2,5-diphenyltetrazolium bromide) assay. Cells were treated with 75 μg of MTT and incubated for 3.5 h. The formazan crystals were dissolved in stop/solubilization solution (50% DMF, 20% SDS, pH 5) and quantified with a SpectraMax M3 microplate reader (Molecular Devices, CA, USA) at the wavelength of 562 nm.
as §1

[7] = As-received PTX dissolved in FBS-containing media after 6 h; type: physicochemical; details: 6 h at 37° C.
Description: FIG. 23. […] One milligram of PTX was added to 1 mL of each medium and incubated for 6 h with agitation. A supernatant was separated from the undissolved PTX by centrifugation at 135,700 rcf for 10 min, extracted with 3 mL of ethyl acetate, which was evaporated and reconstituted in 50% ACN for HPLC analysis. […] The FBS suspension was sampled at 6 h to quantify dissolved PTX by that time. A supernatant was separated from the sample by 10 min centrifugation at 135,700 rcf and analyzed in the same way. The incubation time was limited to 6 h due to the instability of PTX in serum. Since the extraction method cannot differentiate protein-bound PTX from free PTX, the measured values represent the sum of serum protein-bound and free PTX. • [1] G. Bajaj, M. R. Kim, S. I. Mohammed, Y. Yeo, Hyaluronic acid-based hydrogel for regional delivery of paclitaxel to intraperitoneal tumors, J. Control. Release 158 (2012) 386-392. • [2] I. Ringel, S. B. Horwitz, Taxol is converted to 7-epitaxol, a biologically active isomer, in cell culture medium, J. Pharmacol. Exp. Ther. 242 (1987) 692-698.

Compound | cytotoxicity [1] | cytotoxicity [2] | cytotoxicity [3] | IC50 [4] | IC50 [5] | IC50 ([6]; B16-F10, 24 h, B16F10, 24 h treatment + 24 h post-treatment incubation) | IC50 ([6]; B16-F10, B16F10, 24 h treatment + 12 h post-treatment incubation) | IC50 ([6]; B16-F10, B16F10, 24 h treatment + 48 h post-treatment incubation) | PTX dissolved in 10% FBS [7] | PTX dissolved in 50% FBS [7] | PTX dissolved in undiluted FBS [7]
CCCCCCCCCCCCCCCC[N+](C)(C)C.[Br-] [CTAB, hexadecyltrimethylammonium bromide] | cytotoxic | cytotoxic | cytotoxic |  |  |  |  |  |  |  | 
CC(=O)O[C@H]1C(=O)[C@@]2(C)[C@H]([C@H](OC(=O)c3ccccc3)[C@]3(O)C[C@H](OC(=O)[C@H](O)[C@@H](NC(=O)c4ccccc4)c4ccccc4)C(C)=C1C3(C)C)[C@]1(OC(C)=O)CO[C@@H]1C[C@@H]2O [Free PTX, paclitaxel] |  |  |  | 34.2 nM | 423 nM | 213 nM | 91.3 nM | 765 nM | 9.6 ± 2.6 µg/mL | 47.5 ± 11.4 µg/mL | 71.9 ± 8.2 µg/mL
